We go through eight compounds from US20250305023A1, “MEASUREMENT OF PERMEATION OF SMALL MOLECULES INTO GRAM NEGATIVE BACTERIA” (University of Virginia Patent Foundation, priority 2022, published 2025).

Data set [1] relates to E. coli expressing HaloTag. Briefly: Bacterial ChloroAlkane Penetration Assay (BaCAPA) pulse-chase, flow cytometry. It counts as cell-based, Escherichia coli. The following applies: for EC50: Escherichia coli, pulse with chloroalkane-tagged molecule, IPTG induced, flow cytometry, read-out: EC50 (apparent accumulation/permeation, BaCAPA).
Excerpt: This method relies on the genetically encoded HaloTag^24, a mutant form of a bacterial haloalkane dehalogenase that facilitates covalent bond formation with chloroalkane-linked ligands (FIG. 1). […] The assay is based on the expression of the HaloTag protein inside bacterial cells, which are exposed to molecules of interest linked to a chloroalkane tag. If the molecules reach the HaloTag proteins inside the bacteria, they will be covalently bound to the protein. This pulse step is followed by a chase step with a fluorophore-linked chloroalkane. […] Conversely, when a large fraction of molecules of interest permeate the cell membranes and reach the HaloTag proteins, there will be reduced sites available to react with the fluorophore.
In some embodiments, the BaCAPA process can report on apparent accumulation of small molecules past the cellular envelope. In these embodiments, (non-fluorescent) small molecules modified with the chloroalkane are incubated with the bacterial cells expressing HaloTag first (pulse step), which is then followed by a treatment step with the dye R110cl (chase step).
HaloTag Protein Expression: Cytoplasmic HaloTag protein. For expression of the HaloTag protein in E. coli, HaloTag expression plasmid Cyto_Halo_pET21(b)+ was transformed into E. coli BL21(DE3) and grown on an LB/agar plate with ampicillin (100 μg/mL) at 37° C. overnight. Colonies were picked and grown in 5 mL LB broth with ampicillin at 37° C. overnight. A culture tube containing 2 mL LB media was inoculated with the overnight culture at a ratio of 1:100 and cells were grown at 37° C. for 3 h hours, or until the optical density at 600 nm reached 0.6. Cultures were induced with 1 mM Isopropyl β-d-1-thiogalactopyranoside (IPTG) at 37° C. for 2 hours in a shaker incubator, and then pelleted at 4,000 rpm for 3 min in an HERAEUS Multicentrifuge X1 centrifuge (Thermofisher Scientific). The pellet was washed three times with 1×PBS pH 7.2 following which cells were ready for assaying. The identity of the protein was confirmed by SDS-PAGE.
BaCAPA Pulse-Chase Protocol (chloroalkane-tagged molecule, chloroalkane-tagged dye). For a bacterial chloroalkane penetration assay (BaCAPA), 25 μL of serially diluted samples of the chloroalkane-tagged test molecule, in quadruplicate, were transferred into a 96-well plate at 2× of the desired concentration. The pellet obtained from the washing step above was resuspended in 2 mL of 1×PBS by vortexing thoroughly. […]
For another data set, the system named is E. coli outer membrane. Briefly: Outer membrane disruption: co-treatment with R110cl in BaCAPA. Format: cell-based, Escherichia coli. The following applies: for cellular fluorescence on co-incubation with R110cl: various concentrations, 5 μM R110cl, FIG. 3A/3B. From the text:
It is well appreciated that the OM is the major barrier to the permeation of small molecules.^28 Considerable efforts have been devoted to the discovery of molecules that disrupt the OM barrier as antibiotic adjuvants with the goal of potentiating them and/or circumventing resistance.^29-31 Therefore, these agents hold the promise of synergistically enhancing the permeation of potential antibiotics in a broad and, potentially, impactful way.
While there was a decrease in signal-to-noise, the signal strength in the presence of IPTG was well above that in the absence of IPTG.
Polymyxin nonapeptide (PMBN) mediated bacterial chloroalkane-tagged molecule penetration. For the PMBN-mediated penetration assay, 25 μL of the desired PMBN concentration was added into the wells of a 96-well plate at 3× the final concentration along with 25 μL of the HaloTag protein cell suspension (both IPTG induced and non-induced cells). Next, 25 μL of the serially diluted samples of the chloroalkane-tagged test molecule was added into the wells at 3× the desired final concentration, in quadruplicate. The plates were incubated at 37° C. with shaking at 250 RPM. After 30 min, the plate was centrifuged to pellet the cells using a Jouan C4i centrifuge (Thermofisher Scientific). The supernatant was discarded, and the pellet was washed twice with PBS. The chase step followed by addition into each test well, 50 μL of […] chloroalkane-tagged rhodamine 110 and incubated for 30 min at 37° C. with shaking in a shaker incubator at 250 RPM. The plate was centrifuged to pellet the cells and cells were washed three times with PBS and fixed with 4% formaldehyde by incubating at room temperature for 30 min. The cells were analyzed by flow cytometry on the Attune NXT Acoustic Focusing Cytometer (Invitrogen) by exciting using the blue laser ([…]).

Another data set concerns E. coli. Briefly: Minimum Inhibitory Concentration. It counts as cell-based, Escherichia coli. To be noted: for MIC: Escherichia coli, 24 h, 37° C., MH media. On the procedure: For all biological assays, laboratory strains of wild type E. coli (ATCC 25922), and K12 E. coli strains BL21(DE3) and E. coli Lemo21(DE3) were grown with shaking at 37° C. overnight from freezer glycerol stocks in 5 mL of Luria Broth (LB) media.
Minimum Inhibitory Concentration. Compounds were serially diluted 2-fold from stock solutions to yield 12 test concentrations in U-bottom, 96-well plates. Overnight cultures were used to inoculate LB media 1:100 and regrown to exponential phase, as determined by optical density recorded at 600 nm (OD600). All cultures were diluted again to ca. 10^6 CFU/mL in MH media, and 100 μL was inoculated into each well of a U-bottom 96-well plate (BD Biosciences, BD 351177) containing 100 μL of compound solution (in line with CLSI Standards).^4Plates were incubated statically at 37° C. for 24 h upon which time wells were evaluated visually for bacterial growth. The MIC was determined as the lowest concentration of compound resulting in no bacterial growth visible to the naked eye, based on the majority of three independent experiments. Growth and sterility controls were conducted for each plate.

Data set [2] concerns E. coli expressing HaloTag. Briefly: BaCAPA control: labeling with chloroalkane-tagged dye. The following applies: 5 μM dye, compared with R110cl, FIG. 2C. It counts as cell-based, Escherichia coli. As for the experimental part:
In an embodiment, fluorescence levels were determined in bacterial cells that express HaloTag proteins in the cytosol by encoding the protein on an inducible plasmid. Bacterial cells carrying the HaloTag-expressing plasmid were grown to mid-log, induced with isopropyl-β-D-1-thiogalactopyranoside (IPTG), and incubated with a fluorophore modified chloroalkane. Cytosolic HaloTag promotes the formation of a covalent bond with the fluorophore-linked chloroalkane tail (FIG. 2A). Total labeling levels of bacterial cells is then quantified using flow cytometry. In a first step in the BaCAPA, bacterial cells were treated with Rhodamine 110 modified with chloroalkane (R110cl). […] Appreciating that the fluorophore itself could be subject to the same barrier elements that are inherent to E. coli, there was also evaluated the labeling of bacterial cells with a smaller fluorophore, namely coumarin (COMcl). […] While it was clear that coumarin could also covalently modify HaloTag-expressing bacterial cells, the relative fluorescence increase was more modest in cells treated with COMcl (FIG. 2C). […]
To empirically establish the dye concentration that optimizes the signal output for the assay, bacterial cells were treated with a range of R110cl concentrations (FIG. 2D). […] HaloTag labeling with R110cl can be analyzed from the whole cellular proteome because of the selectivity of this enzymatic reaction. […]

Converted amounts (≈) assume the structure as drawn.

On to `Cl.NCCOCCOCCCCCCCl` [Compound 1, 2-(2-((6-Chlorohexyl)oxy)ethoxy)ethanamine hydrochloride], for which the EC50 in data set [1] (chase with 5 μM R110cl) was around 5 µM. The “concentration at which nearly background fluorescence levels were observed” value in data set [1] (concentration scan, chase with 5 μM R110cl) was 12 µM.

For the compound polymyxin B nonapeptide [PMBN], the “cellular fluorescence relative to cells not treated with PMBN” value in the data set on E. coli outer membrane (10 μM of PMBN, co-treatment with R110cl) is “double”. Also, the “cellular fluorescence on co-incubation with R110cl” value in the data set with E. coli outer membrane is “concentration-dependent increase in cellular fluorescence”. For the same compound, in the data set on E. coli cells, the bacterial viability result is on record as “no loss of bacterial viability”.

`O=C(NCCOCCOCCCCCCCl)c1cn(C2CC2)c2cc(N3CCNCC3)c(F)cc2c1=O` [Compound 8, Ciprofloxacin-carboxy-HaloTag amide]: the lowest concentration to inhibit growth with E. coli (MIC) was 4 µg/mL (≈ 7.45 µM). Further, the “increase of MIC value” in the data set with E. coli (relative to derivatives 6 and 7) is recorded as 8 fold.

Consider `O=C(CN1CCN(c2cc3c(cc2F)c(=O)c(C(=O)O)cn3C2CC2)CC1)NCCOCCOCCCCCCCl` [Compound 7], for which 0.5 µg/mL (≈ 0.84 µM) was the least that counted as inhibitory against E. coli (MIC).

In the case of `O=C(CCC(=O)N1CCN(c2cc3c(cc2F)c(=O)c(C(=O)O)cn3C2CC2)CC1)NCCOCCOCCCCCCCl` [Compound 6], in data set [1] (chase with 5 μM R110cl), the EC50 was 42.2 µM. Besides, in the data set on E. coli, the MIC – broadly, the lowest concentration found to suppress growth – is 0.5 µg/mL (≈ 0.785 µM).

Regarding `Cc1c(CC(=O)NCCOCCOCCCCCCCl)c(=O)oc2cc(N)ccc12` [COMcl], the “relative fluorescence increase in HaloTag-expressing cells” value in data set [2] is on record as “more modest”.

Turning to `C[N+](C)(C)CC(=O)NCCOCCOCCCCCCCl` [Compound 5, HaloTag-betainamide], in data set [1] (methylation series of amino group, FIG. 4A), the “relative accumulation in E. coli” value was “statistically significant lowered accumulation level”.

As for `Clc1cccc(CN=C2Nc3ccccc3NC23CCNCC3)c1` [liproxstatin], the “cellular fluorescence on co-incubation with R110cl” value in the data set with E. coli outer membrane was “increase in cellular fluorescence”.
